# Measurements as given in US20160298129A1, “ALS INHIBITOR HERBICIDE TOLERANT MUTANT PLANTS” (BAYER CROPSCIENCE NV, priority 2013, published 2016).
# Tests used:
# AHAS W574L = AHAS W574L (Arabidopsis thaliana, UniProt P17597, E575Q/W574L); assay type: biochemical
# Experimental: (§1) Bacteria are grown at 37° C. in LB-medium containing 100 mg/l carbenicillin and 25 mg/l canamycin, induced with 1 mM isopropyl-β-D-thiogalactopyranoside at an OD600 of 0.6, cultivated for 16 hours at 18° C. and harvested by, e.g., centrifugation. Bacterial pellets are resuspended in 100 mM sodium phosphate buffer pH 7.0 containing 0.1 mM thiamine-pyrophosphate, 1 mM MgCl2, and 1 μM FAD at a concentration of 1 gram wet weight per 25 ml of buffer and disrupted by, e.g., sonification. The crude protein extract obtained after centrifugation is used for ALS activity measurements.
# (§2) ALS protein can be extracted from leaves or tissue cultures, such as B. napus or B. juncea leaves, or B. napus or B. juncea tissue cultures as described by Ray (Plant Physiol, 1984, 75:827-831). An ALS assays can be carried out in 96-well microtiter plates using a modification of the procedure described by Ray (1984): The reaction mixture contains 20 mM potassium phosphate buffer pH 7.0, 20 mM sodium pyruvate, 0.45 mM thiamine-pyrophosphate, 0.45 mM MgCl2, 9 μM FAD. ALS enzyme and various concentrations of ALS inhibitors can be mixed in a final volume of 90 μl Assays can be initiated by adding enzyme and the assays can be terminated after 75 min incubation at 30° C. by the addition of 40 μl 0.5 M H2SO4.
# AHAS P197S = AHAS P197S (Arabidopsis thaliana, UniProt P17597, E575Q/P197S); assay type: biochemical
# Chain of AHAS P197S (P17597 56-670 P197S/E575Q): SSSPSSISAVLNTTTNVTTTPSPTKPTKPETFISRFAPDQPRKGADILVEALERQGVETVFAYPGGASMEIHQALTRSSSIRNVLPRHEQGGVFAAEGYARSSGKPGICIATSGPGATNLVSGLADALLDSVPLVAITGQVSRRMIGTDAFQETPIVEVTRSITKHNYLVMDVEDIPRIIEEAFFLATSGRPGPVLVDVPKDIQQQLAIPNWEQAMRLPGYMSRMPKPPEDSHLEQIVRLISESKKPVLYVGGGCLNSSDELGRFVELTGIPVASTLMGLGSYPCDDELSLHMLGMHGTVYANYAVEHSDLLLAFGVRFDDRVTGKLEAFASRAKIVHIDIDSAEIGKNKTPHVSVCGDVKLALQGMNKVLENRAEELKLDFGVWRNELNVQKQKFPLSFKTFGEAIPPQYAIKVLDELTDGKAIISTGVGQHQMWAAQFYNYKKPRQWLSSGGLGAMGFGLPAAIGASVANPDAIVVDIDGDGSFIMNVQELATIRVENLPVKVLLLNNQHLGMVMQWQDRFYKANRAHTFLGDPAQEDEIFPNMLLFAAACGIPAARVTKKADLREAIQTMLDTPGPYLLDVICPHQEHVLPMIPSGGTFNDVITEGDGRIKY
# Experimental: as §1, §2
# AHAS P197S-D376E-W574L = AHAS P197S-D376E-W574L (Arabidopsis thaliana, UniProt P17597, D376E/E575Q/P197S/W574L); test: biochemical; details: for Resistance Factor: AHAS P197S-D376E-W574L
# Chain of AHAS P197S-D376E-W574L (P17597 56-670 P197S/D376E/W574L/E575Q): as the sequence (P17597 56-670 P197S/E575Q) above, with D321E, W519L counted along it
# Experimental: as §1, §2
# AHAS D376E = AHAS D376E (Arabidopsis thaliana, UniProt P17597, D376E/E575Q); test: biochemical; details: for Resistance Factor: AHAS D376E
# Chain of AHAS D376E (P17597 56-670 D376E/E575Q): as the sequence (P17597 56-670 P197S/E575Q) above, with S142P, D321E counted along it
# Experimental: as §1, §2
# AHAS D376E-W574L = AHAS D376E-W574L (Arabidopsis thaliana, UniProt P17597, D376E/E575Q/W574L); test: biochemical; details: for Resistance Factor: AHAS D376E-W574L
# Chain of AHAS D376E-W574L (P17597 56-670 D376E/W574L/E575Q): as the sequence (P17597 56-670 P197S/E575Q) above, with S142P, D321E, W519L counted along it
# Experimental: as §1, §2
# AHAS P197S-W574L = AHAS P197S-W574L (Arabidopsis thaliana, UniProt P17597, E575Q/P197S/W574L); test: biochemical; details: for Resistance Factor: AHAS P197S-W574L
# Chain of AHAS P197S-W574L (P17597 56-670 P197S/W574L/E575Q): as the sequence (P17597 56-670 P197S/E575Q) above, with W519L counted along it
# Experimental: as §1, §2
# AHAS P197S-D376E = AHAS P197S-D376E (Arabidopsis thaliana, UniProt P17597, D376E/E575Q/P197S); test: biochemical; details: for Resistance Factor: AHAS P197S-D376E
# Chain of AHAS P197S-D376E (P17597 56-670 P197S/D376E/E575Q): as the sequence (P17597 56-670 P197S/E575Q) above, with D321E counted along it
# Experimental: as §1, §2
# Chain of AHAS W574L (P17597 56-670 W574L/E575Q): as the sequence (P17597 56-670 P197S/E575Q) above, with S142P, W519L counted along it
Structure (SMILES),Resistance Factor (AHAS W574L),Resistance Factor (AHAS P197S),IC50 (AHAS P197S-D376E-W574L) [µM],Resistance Factor (AHAS P197S-D376E-W574L),IC50 (AHAS D376E) [nM],Resistance Factor (AHAS D376E),IC50 (AHAS D376E-W574L) [µM],Resistance Factor (AHAS D376E-W574L),IC50 (AHAS P197S-W574L) [µM],Resistance Factor (AHAS P197S-W574L),IC50 (AHAS P197S-D376E) [µM],Resistance Factor (AHAS P197S-D376E)
"COc1cc(OC)nc(NC(=O)NS(=O)(=O)N(C)S(C)(=O)=O)n1 [Amidosulfuron, amidosulfuron]",>488,>488,> 100,>488,> 100000,>488,> 100,>488,> 100,>488,> 100,>488
"COc1cc(OC)nc(NC(=O)NS(=O)(=O)c2ncccc2C(F)(F)F)n1 [Flazasulfuron, flazasulfuron]",3802,120,> 100,>120226,631,759,> 100,>120226,> 100,>120226,> 100,>120226
COC(=O)c1ccc(C(F)(F)F)nc1S(=O)(=O)NC(=O)Nc1nc(OC)cc(OC)n1 [Flupyrsulfuron-methyl],,,,>47863,,2399,,>47863,,>47863,,>47863
"COC(=O)c1ccc(I)cc1S(=O)(=O)[N-]C(=O)Nc1nc(C)nc(OC)n1.[Na+] [Iodosulfuron-methy-sodium, iodosulfuron-methyl-sodium]",555,139,,>35030,,3503,,>35030,,>35030,,>35030
"COc1cc(OC)n2nc(S(=O)(=O)Nc3c(Cl)ccc(C)c3Cl)nc2n1 [Metosulam, metosulam]",5754,457,> 100,>28840,2000,575,> 100,>28840,> 100,>28840,> 100,>28840
"COC(=O)c1ccccc1S(=O)(=O)NC(=O)Nc1nc(C)nc(OC)n1 [Metsulfuron-methyl, metsulfuron-methyl]",755,38,,>7547,,239,,>7547,,>7547,,>7547
CCCOc1nn(C(=O)[N-]S(=O)(=O)c2ccccc2C(=O)OC)c(=O)n1C.[Na+] [Propoxycarbazone],293,147,,>4641,,1468,,>4641,,>4641,,>4641
"COC(=O)c1csc(C)c1S(=O)(=O)NC(=O)n1nc(OC)n(C)c1=O [Thiencarbazone-methyl, thiencarbazone-methyl]",1173,1173,,>7399,,371,,>7399,,>7399,,>7399
"COC(=O)c1sccc1S(=O)(=O)NC(=O)Nc1nc(C)nc(OC)n1 [Thifensulfuron-Methyl, thifensulfuron-methyl]",1585,200,> 100,>2511,25100,631,> 100,>2511,> 100,>2511,> 100,>2511
